Key:
Format in all cases: functional
[1] = test system: UO-31; assay: Growth inhibition of human UO31 cells assessed as cell growth at 10^-8 M after 48 hrs by sulforhodamine B assay; conditions: UO-31, 48 h, read-out: Activity
[2] = test system: MDA-MB-468; assay: Growth inhibition of human MDA-MB-468 cells assessed as cell growth at 10^-5 M after 48 hrs by sulforhodamine B assay; conditions: MDA-MB-468, 48 h, read-out: Activity
[3] = test system: SN12C; assay: Growth inhibition of human SN12C cells assessed as cell growth at 10^-5 M after 48 hrs by sulforhodamine B assay; conditions: read-out: Activity
[4] = test system: A498; assay: Growth inhibition of human A498 cells assessed as cell growth at 10^-5 M after 48 hrs by sulforhodamine B assay; conditions: A498, 48 h, read-out: Activity
[5] = test system: U-251; assay: Growth inhibition of human U251 cells assessed as cell growth at 10^-5 M after 48 hrs by sulforhodamine B assay; conditions: U-251, 48 h, read-out: Activity
[6] = test system: OVCAR-3; assay: Growth inhibition of human OVCAR3 cells assessed as cell growth at 10^-6 M after 48 hrs by sulforhodamine B assay; conditions: OVCAR-3, 48 h, read-out: Activity
[7] = test system: LOX IMVI; assay: Growth inhibition of human LOXIMVI cells assessed as cell growth at 10^-6 M after 48 hrs by sulforhodamine B assay; conditions: read-out: Activity
[8] = test system: T47D; assay: Growth inhibition of human T47D cells assessed as cell growth at 10^-7 M after 48 hrs by sulforhodamine B assay; conditions: read-out: Activity
[9] = test system: M14; assay: Growth inhibition of human M14 cells assessed as cell growth at 10^-7 M after 48 hrs by sulforhodamine B assay; conditions: M14, 48 h, read-out: Activity
[10] = Growth inhibition of human NCI-ADR-RES cells assessed as cell growth at 10^-4 M after 48 hrs by sulforhodamine B assay; conditions: read-out: Activity

Row | SMILES | growth at 0.01 µM [1] [%] | growth at 10 µM [2] [%] | growth at 10 µM [3] [%] | growth at 10 µM [4] [%] | growth at 10 µM [5] [%] | growth at 1 µM [6] [%] | growth at 1 µM [7] [%] | growth at 0.1 µM [8] [%] | growth at 0.1 µM [9] [%] | growth at 100 µM [10] [%]
1 | COc1cc(-c2nn(-c3cccc(NC(=O)c4ccccc4)c3)cc2-c2ccncc2)ccc1Cl | 92 | -15 | 34 | -19 | 17 | 4 | 36 | 92 | 92 | –
2 | COc1cc(-c2nn(-c3cccc(NC(=O)c4ccc(N5CCOCC5)c(C(F)(F)F)c4)c3)cc2-c2ccncc2)ccc1Cl | 91 | -64 | 14 | -32 | -17 | – | 29 | 93 | 76 | 2
